Several values for one entry are separate records, joined by “and”; a condition that tells them apart may be missing. Identical values can stand only once. ± gives the expanded uncertainty stated by the source.
Key:
[1] = for vapor or sublimation pressure: Calculated from knudsen effusion weight loss; for Triple point temperature: DTA
[2] = Molar enthalpy of transition or fusion; details: DSC

NC(=O)c1cccc(N)c1 [3-aminobenzamide]
vapor or sublimation pressure ([1]; 358.14 K, Crystal): 3.7e-05 ± 2e-05 kPa and 3.8e-05 ± 2e-05 kPa
vapor or sublimation pressure ([1]; 360.19 K, Crystal): 4.8e-05 ± 2e-05 kPa and 4.7e-05 ± 2e-05 kPa
vapor or sublimation pressure ([1]; 362.14 K, Crystal): 5.9e-05 ± 2e-05 kPa and 5.8e-05 ± 2e-05 kPa and 6e-05 ± 2e-05 kPa
vapor or sublimation pressure ([1]; 364.14 K, Crystal): 7.5e-05 ± 2e-05 kPa
vapor or sublimation pressure ([1]; 366.17 K, Crystal): 9.4e-05 ± 2e-05 kPa
vapor or sublimation pressure ([1]; 368.15 K, Crystal): 0.000116 ± 2e-05 kPa and 0.000114 ± 2e-05 kPa and 0.000117 ± 2e-05 kPa
vapor or sublimation pressure ([1]; 370.15 K, Crystal): 0.000144 ± 2.1e-05 kPa and 0.000146 ± 2.1e-05 kPa and 0.000143 ± 2.1e-05 kPa
vapor or sublimation pressure ([1]; 372.19 K, Crystal): 0.000179 ± 2.1e-05 kPa and 0.000177 ± 2.1e-05 kPa and 0.000176 ± 2.1e-05 kPa
vapor or sublimation pressure ([1]; 374.13 K, Crystal): 0.000218 ± 2.1e-05 kPa and 0.000216 ± 2.1e-05 kPa and 0.000222 ± 2.2e-05 kPa
vapor or sublimation pressure ([1]; 376.15 K, Crystal): 0.000276 ± 2.2e-05 kPa and 0.000275 ± 2.2e-05 kPa and 0.000274 ± 2.2e-05 kPa
vapor or sublimation pressure ([1]; 378.18 K, Crystal): 0.000342 ± 2.3e-05 kPa and 0.000338 ± 2.3e-05 kPa
vapor or sublimation pressure ([1]; 380.14 K, Crystal): 0.00042 ± 2.5e-05 kPa and 0.000406 ± 2.5e-05 kPa and 0.000405 ± 2.5e-05 kPa
Triple point temperature ([1]; Crystal 1): 387.5 ± 0.4 K
Triple point temperature ([1]; Crystal 2): 352.4 ± 0.4 K
Molar enthalpy of transition or fusion ([2]; Crystal 1): 4.85 ± 0.12 kcal/mol
Molar enthalpy of transition or fusion ([2]; Crystal 2): 0.789 ± 0.0478 kcal/mol

NC(=O)c1ccc(N)cc1 [4-aminobenzamide]
vapor or sublimation pressure ([1]; 389.14 K, Crystal): 0.000125 ± 2e-05 kPa and 0.000124 ± 2e-05 kPa
vapor or sublimation pressure ([1]; 391.15 K, Crystal): 0.000154 ± 2.1e-05 kPa and 0.000156 ± 2.1e-05 kPa and 0.000152 ± 2.1e-05 kPa
vapor or sublimation pressure ([1]; 393.14 K, Crystal): 0.000185 ± 2.1e-05 kPa and 0.000182 ± 2.1e-05 kPa and 0.000187 ± 2.1e-05 kPa
vapor or sublimation pressure ([1]; 395.15 K, Crystal): 0.000228 ± 2.2e-05 kPa and 0.000226 ± 2.2e-05 kPa
vapor or sublimation pressure ([1]; 397.15 K, Crystal): 0.000271 ± 2.2e-05 kPa and 0.000279 ± 2.2e-05 kPa
vapor or sublimation pressure ([1]; 399.14 K, Crystal): 0.00033 ± 2.3e-05 kPa and 0.000332 ± 2.3e-05 kPa and 0.000335 ± 2.3e-05 kPa
vapor or sublimation pressure ([1]; 401.16 K, Crystal): 0.000407 ± 2.5e-05 kPa and 0.000411 ± 2.5e-05 kPa
vapor or sublimation pressure ([1]; 403.15 K, Crystal): 0.000497 ± 2.7e-05 kPa and 0.000495 ± 2.7e-05 kPa and 0.000498 ± 2.7e-05 kPa
vapor or sublimation pressure ([1]; 405.14 K, Crystal): 0.000597 ± 2.9e-05 kPa and 0.000591 ± 2.9e-05 kPa and 0.000602 ± 2.9e-05 kPa
vapor or sublimation pressure ([1]; 407.19 K, Crystal): 0.000728 ± 3.3e-05 kPa and 0.000721 ± 3.2e-05 kPa
vapor or sublimation pressure ([1]; 409.2 K, Crystal): 0.000873 ± 3.7e-05 kPa and 0.000868 ± 3.7e-05 kPa and 0.000883 ± 3.7e-05 kPa
vapor or sublimation pressure ([1]; 411.15 K, Crystal): 0.001054 ± 8.3e-05 kPa and 0.001042 ± 8.1e-05 kPa and 0.001008 ± 7.8e-05 kPa
Triple point temperature ([1]; Crystal): 457.6 ± 0.4 K
Molar enthalpy of transition or fusion ([2]; Crystal): 7.17 ± 0.167 kcal/mol

NC(=O)c1ccccc1N [anthranilamide]
vapor or sublimation pressure ([1]; 335.11 K, Crystal): 9.5e-05 ± 2e-05 kPa and 9.6e-05 ± 2e-05 kPa
vapor or sublimation pressure ([1]; 337.17 K, Crystal): 0.000121 ± 2e-05 kPa and 0.00012 ± 2e-05 kPa
vapor or sublimation pressure ([1]; 339.17 K, Crystal): 0.00015 ± 2.1e-05 kPa and 0.000149 ± 2.1e-05 kPa and 0.000152 ± 2.1e-05 kPa
vapor or sublimation pressure ([1]; 341.1 K, Crystal): 0.00019 ± 2.1e-05 kPa and 0.000188 ± 2.1e-05 kPa and 0.000187 ± 2.1e-05 kPa
vapor or sublimation pressure ([1]; 343.16 K, Crystal): 0.000237 ± 2.2e-05 kPa and 0.000232 ± 2.2e-05 kPa and 0.000236 ± 2.2e-05 kPa
vapor or sublimation pressure ([1]; 345.16 K, Crystal): 0.00029 ± 2.2e-05 kPa and 0.000285 ± 2.2e-05 kPa and 0.000298 ± 2.3e-05 kPa
vapor or sublimation pressure ([1]; 347.11 K, Crystal): 0.000359 ± 2.4e-05 kPa and 0.000357 ± 2.4e-05 kPa
vapor or sublimation pressure ([1]; 349.16 K, Crystal): 0.000445 ± 2.5e-05 kPa and 0.000435 ± 2.5e-05 kPa and 0.000441 ± 2.5e-05 kPa
vapor or sublimation pressure ([1]; 351.17 K, Crystal): 0.000539 ± 2.8e-05 kPa and 0.00053 ± 2.7e-05 kPa and 0.000545 ± 2.8e-05 kPa
vapor or sublimation pressure ([1]; 353.12 K, Crystal): 0.000667 ± 3.1e-05 kPa and 0.000663 ± 3.1e-05 kPa
vapor or sublimation pressure ([1]; 355.16 K, Crystal): 0.00082 ± 3.5e-05 kPa and 0.000826 ± 3.5e-05 kPa and 0.000806 ± 3.5e-05 kPa
vapor or sublimation pressure ([1]; 357.16 K, Crystal): 0.000993 ± 4e-05 kPa and 0.000994 ± 4e-05 kPa
Triple point temperature ([1]; Crystal): 384.4 ± 0.4 K
Molar enthalpy of transition or fusion ([2]; Crystal): 5 ± 0.12 kcal/mol

From the NIST ThermoML archive (doi:10.1016/j.jct.2012.12.006)
